Measurements reported in ChEMBL document CHEMBL4184104, “Identification of novel allosteric inhibitors of mutant isocitrate dehydrogenase 1 by cross docking-based virtual screening” (Bioorg Med Chem Lett, 2018).

Columns and labels:
[1] = system: Isocitrate dehydrogenase [NADP] cytoplasmic (Homo sapiens), O75874 [R132H]; assay: Inhibition of IDH1 R132H mutant (unknown origin) expressed in HEK293T cells assessed as D2-HG level at 50 uM after 72 hrs relative to control; type: cell-based; conditions: values are per cent of control
Isocitrate dehydrogenase [NADP] cytoplasmic (Homo sapiens), O75874 [R132H], sequence (O75874 whole entry R132H): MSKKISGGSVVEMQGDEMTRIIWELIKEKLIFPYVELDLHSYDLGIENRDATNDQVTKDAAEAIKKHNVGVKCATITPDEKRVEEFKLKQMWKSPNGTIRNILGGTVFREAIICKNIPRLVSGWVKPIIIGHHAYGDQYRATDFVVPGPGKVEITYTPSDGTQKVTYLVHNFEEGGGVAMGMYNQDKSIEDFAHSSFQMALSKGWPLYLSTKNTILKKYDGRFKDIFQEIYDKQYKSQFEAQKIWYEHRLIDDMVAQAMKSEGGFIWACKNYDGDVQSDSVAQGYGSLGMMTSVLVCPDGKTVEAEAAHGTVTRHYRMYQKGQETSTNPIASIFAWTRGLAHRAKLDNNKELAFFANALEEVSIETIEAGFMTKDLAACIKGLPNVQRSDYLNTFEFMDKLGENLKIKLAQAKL

[2] = system: Isocitrate dehydrogenase [NADP] cytoplasmic (Homo sapiens), O75874 [R132C]; assay: Inhibition of IDH1 R132C mutant (unknown origin) expressed in HEK293T cells assessed as D2-HG level at 50 uM after 72 hrs relative to control; type: cell-based; conditions: values are per cent of control
Isocitrate dehydrogenase [NADP] cytoplasmic (Homo sapiens), O75874 [R132C], sequence (O75874 whole entry R132C): as the sequence (O75874 whole entry R132H) above, with H132C counted along it

[3] = system: Isocitrate dehydrogenase [NADP] cytoplasmic (Homo sapiens), O75874 [R132H]; assay: Inhibition of IDH1 R132H mutant (unknown origin) expressed in HEK293T cells assessed as D2-HG level at 10 uM after 72 hrs relative to control; type: cell-based; conditions: values are per cent of control
HEK-293T = assay: (§1) Cytotoxicity against HEK293T cells harboring pMXs-IDH1wt-IRES-BsdRs assessed as cell survival at 50 uM after 72 hrs by CellTiterGlo assay relative to control; type: cell-based; conditions: human, hek-293t, 72 h, 50 µM
[4] = Cytotoxicity against HEK293T cells harboring pMXs-IDH1wt-IRES-BsdRs assessed as cell survival at 10 uM after 72 hrs by CellTiterGlo assay relative to control; type: cell-based, HEK-293T; conditions: human, read-out: Survival
[5] = system: Isocitrate dehydrogenase [NADP] cytoplasmic (Homo sapiens), O75874 [R132C]; assay: Inhibition of IDH1 R132C mutant (unknown origin) expressed in HEK293T cells assessed as D2-HG level at 10 uM after 72 hrs relative to control; type: cell-based; conditions: values are per cent of control
[6] = Effective permeability of the compound at 25 ug/ml after 18 hrs by BBB-PAMPA method; type: ADME; conditions: read-out: Peff
[7] = as §1; type: cell-based, HEK-293T; conditions: human, HEK293T cells harboring pMXs-IDH1wt-IRES-BsdRs; read-out: Survival
[8] = target: Isocitrate dehydrogenase [NADP] cytoplasmic (Homo sapiens, UniProt O75874, R132C); assay: Inhibition of IDH1 R132C mutant (unknown origin) expressed in HEK293T cells assessed as reduction in D2-HG level after 30 mins by resazurin-based fluorescence assay; type: cell-based
Isocitrate dehydrogenase [NADP] cytoplasmic (Homo sapiens, UniProt O75874, R132C), sequence (O75874 2-414 R132C limits assumed): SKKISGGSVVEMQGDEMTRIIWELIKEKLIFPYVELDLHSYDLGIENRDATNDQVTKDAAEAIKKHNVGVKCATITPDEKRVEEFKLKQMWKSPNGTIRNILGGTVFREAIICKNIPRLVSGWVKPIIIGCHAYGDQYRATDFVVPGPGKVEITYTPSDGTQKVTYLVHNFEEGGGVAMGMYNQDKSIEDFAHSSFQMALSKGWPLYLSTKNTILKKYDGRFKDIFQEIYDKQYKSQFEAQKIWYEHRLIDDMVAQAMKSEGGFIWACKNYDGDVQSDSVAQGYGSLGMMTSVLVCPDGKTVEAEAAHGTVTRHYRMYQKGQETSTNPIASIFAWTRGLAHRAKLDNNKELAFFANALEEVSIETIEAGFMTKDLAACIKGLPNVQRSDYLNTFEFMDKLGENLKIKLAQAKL

[9] = target: Isocitrate dehydrogenase [NADP] cytoplasmic (Homo sapiens, UniProt O75874, R132H); assay: Inhibition of IDH1 R132H mutant (unknown origin) expressed in HEK293T cells assessed as reduction in D2-HG level after 30 mins by resazurin-based fluorescence assay; type: cell-based
Isocitrate dehydrogenase [NADP] cytoplasmic (Homo sapiens, UniProt O75874, R132H), sequence (O75874 2-414 R132H limits assumed): as the sequence (O75874 2-414 R132C limits assumed) above, with C131H counted along it

response, % of control [1] [%]	response, % of control [2] [%]	response, % of control [3] [%]	response, % of control [5] [%]	IC50 [8] [µM]	IC50 [9] [µM]	Compound	Activity (HEK-293T)	viability at 72 h, 10 µM [4] [%]	Papp at 18 h, 25 ug/ml [6] [×10⁻⁶ cm/s]	viability at 72 h, 50 µM [7] [%]
39.9	40.9	91.3	79.3	–	–	CC(O)c1cccc(NC(=O)c2cnn3c2NC(c2ccccc2)CC3C(F)(F)F)c1 (configuration not stated)	Non-Toxic	–	–	–
0.4	0.9	1.3	13.3	–	–	Cc1ccccc1C(C(=O)NC1CCCCC1)N(C(=O)Cn1ccnc1C)c1cccc(F)c1 (configuration not stated)	–	–	–	–
59.5	109	58.2	61.1	–	–	O=C(Nc1cccc(NC(=O)c2cccc(S(=O)(=O)N3CCCCC3)c2)c1)c1ccc(Br)cc1	Non-Toxic	–	–	–
66.3	50.4	86.2	86.1	–	–	COC(=O)c1ccccc1NC(=O)CNCn1cnc2ccccc21	Non-Toxic	–	–	–

The next lines start with the compound.

Compound	response, % of control [1] [%]	response, % of control [2] [%]	response, % of control [3] [%]	response, % of control [5] [%]	IC50 [8] [µM]	IC50 [9] [µM]	Activity (HEK-293T)	viability at 72 h, 10 µM [4] [%]	Papp at 18 h, 25 ug/ml [6] [×10⁻⁶ cm/s]	viability at 72 h, 50 µM [7] [%]
Cc1ccc(NC(=O)c2cc([N+](=O)[O-])cc3c2-c2ccc([N+](=O)[O-])cc2C3=O)cc1	72.5	52.7	103	–	–	–	Non-Toxic	–	–	–
CC(C)CCOc1cccc(C(=O)Nc2ccc(C(=O)Nc3cccc4ccccc34)cc2)c1	49.5	43.6	54.9	48.4	–	–	–	91.3	8.15	88.6
COc1cccc(C(=O)Nc2cccc(OCC(=O)c3ccccc3)c2)c1	73.7	103	94.6	138	–	–	Non-Toxic	–	–	–
COc1ccccc1NC(=O)c1c(NCc2cccnc2)sc2c1CC[C@H](C)C2	32	34.7	96.7	123	–	–	Non-Toxic	–	–	–
COC(=O)C1C(=O)C2=C(CC1C)Nc1ccccc1NC2c1c[nH]c2ccccc12 (configuration not stated)	–	–	–	–	50	50	–	–	–	–
